# Experiments:
# [1] = system: E. coli cells with AGS1 variant AGS1m17, F81S, P185S, H212T, V214A, G218S, I303N, SEQ ID NO:34; test: growth of E. coli on glufosinate plates, ags1m17; format: cell-based
# Procedure: (§1) Clones expressing AGS1m17, AGS1m18, AGS1m19, or AGS1m20 were all found to be able to grow on plates containing 375 mM glufosinate, whereas no growth of clones expressing AGS1m16 was observed on plates containing 375 mM glufosinate.
# [2] = system: E. coli cells with AGS1 variant AGS1m18, F81S, P185S, H212T, V214S, G218S, I303N, SEQ ID NO:36; test: growth of E. coli on glufosinate plates, ags1m18; format: cell-based
# Procedure: as §1
# [3] = system: E. coli cells with AGS1 variant AGS1m20, F81S, P185S, H212M, V214H, G218S, I303N, SEQ ID NO:40; test: growth of E. coli on glufosinate plates, ags1m20; format: cell-based
# Procedure: as §1
# [4] = system: E. coli DH5α cells with TKH2; test: growth of DH5α with TKH2 on M63 minimal plates with glufosinate; format: cell-based; conditions: 20 mM glufosinate
# Procedure: To obtain the gene(s) responsible for the strain's resistance to glufosinate, a small insert plasmid genomic library was prepared from strain ATX 20345. Genomic DNA was extracted from a fresh, overnight LB culture using SDS, proteinase K cell lysis followed by CTAB/NaCl, phenol-chloroform extractions. Partial digests were performed on the genomic DNA using 0.1 units Sau3A I at 37° C. for 30 minutes followed by the addition of EDTA and incubation at 65° C. for 20 minutes to halt the reaction. Resultant DNA was approximately 4-12 kb in size. The DNA was gel purified, treated with T4 polynucletide kinase, then ligated into BamH I digested pUC18 vector. Ligations were transformed into DH5a and plated directly on M63 minimal media plates containing 20 mM glufosinate, 100 μg/ml carbenicillin, and 0.1 mM IPTG. After several days, 4 colonies had appeared, tentatively named TKH1-4. They were grown up and plasmid DNA was isolated and analyzed by digestion with EcoR I+ Hind III, and Pst I/Sac Ito compare inserts. Though all four clones contained inserts, TKH2 and TKH3 were identical by restriction digest analysis, and both contained inserts of approximately 4.9 kb.
# To reconfirm that TKH2 and TKH3 confer resistance to 20 mM glufosinate, the purified plasmids were retransformed into DH5α cells. pUC18 was retransformed as a negative control. […]
# [5] = target: Serratia marcescens glutamine synthetase AGS1 variant AGS1m17(AD-), F81S, P185S, H212T, V214A, G218S, I303N plus tyrosine 398 to phenylalanine, SEQ ID NO:46 (Serratia marcescens, UniProt A0A0F6KS08, F81S/G218S/H212T/I303N/P185S/V214A/Y398F); test: enzymatic assay, kinetics of AGS1m17(AD-); format: biochemical
# Serratia marcescens glutamine synthetase AGS1 variant AGS1m17(AD-), F81S, P185S, H212T, V214A, G218S, I303N plus tyrosine 398 to phenylalanine, SEQ ID NO:46, sequence (A0A0F6KS08 whole entry F81S/P185S/H212T/V214A/G218S/I303N/Y398F): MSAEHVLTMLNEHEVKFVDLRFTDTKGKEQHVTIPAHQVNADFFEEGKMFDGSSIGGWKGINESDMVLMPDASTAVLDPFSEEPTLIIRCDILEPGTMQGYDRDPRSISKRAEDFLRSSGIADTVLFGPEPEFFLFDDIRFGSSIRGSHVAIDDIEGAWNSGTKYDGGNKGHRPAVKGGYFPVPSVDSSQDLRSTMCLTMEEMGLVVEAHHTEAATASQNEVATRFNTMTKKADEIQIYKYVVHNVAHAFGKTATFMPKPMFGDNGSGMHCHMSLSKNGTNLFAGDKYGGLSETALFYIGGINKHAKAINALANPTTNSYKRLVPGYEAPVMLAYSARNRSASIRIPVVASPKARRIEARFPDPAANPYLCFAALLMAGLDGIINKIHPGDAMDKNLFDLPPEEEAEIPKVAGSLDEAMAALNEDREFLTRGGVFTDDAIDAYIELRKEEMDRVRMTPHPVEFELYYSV
# Procedure: ags1m17(ad-) (SEQ ID NO:45) encoding the AGS1m17(AD-) protein (SEQ ID NO:46), is a variant of ags1m17 in which the putative adenylylation site has been removed by mutating the tyrosine at position 398 of AGS1 to a phenylalanine by site directed mutagenesis.
# (§2) The unmodified enzyme (AGS1) was compared to AGS1(AD-) and AGS1m17(AD-) by carrying out enzymatic assays on both enzymes following purification from E. coli. A glutamine synthetase enzyme from E. coli (GlnA) was also tested.
# [6] = target: Serratia marcescens glutamine synthetase AGS1 variant AGS1(AD-), tyrosine 398 to phenylalanine, SEQ ID NO:44 (Serratia marcescens, UniProt A0A0F6KS08, Y398F); test: enzymatic assay, kinetics of AGS1(AD-); format: biochemical
# Serratia marcescens glutamine synthetase AGS1 variant AGS1(AD-), tyrosine 398 to phenylalanine, SEQ ID NO:44, sequence (A0A0F6KS08 whole entry Y398F): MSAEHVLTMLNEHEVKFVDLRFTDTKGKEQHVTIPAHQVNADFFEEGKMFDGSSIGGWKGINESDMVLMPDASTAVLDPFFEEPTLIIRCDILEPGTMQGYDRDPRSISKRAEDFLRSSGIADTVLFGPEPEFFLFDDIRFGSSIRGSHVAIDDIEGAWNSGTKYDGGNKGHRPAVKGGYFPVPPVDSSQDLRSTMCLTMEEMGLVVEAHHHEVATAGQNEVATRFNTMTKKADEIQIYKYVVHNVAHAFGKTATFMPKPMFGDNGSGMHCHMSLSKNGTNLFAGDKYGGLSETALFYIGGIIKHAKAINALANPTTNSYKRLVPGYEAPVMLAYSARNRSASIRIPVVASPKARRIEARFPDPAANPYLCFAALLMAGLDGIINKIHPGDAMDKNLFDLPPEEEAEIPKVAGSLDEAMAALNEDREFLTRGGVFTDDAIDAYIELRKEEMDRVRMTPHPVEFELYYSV
# Procedure: ags1(ad-) (SEQ ID NO:43) encoding the AGS1(AD-) protein (SEQ ID NO:44), is a variant of ags1 in which the putative adenylylation site has been removed by mutating the tyrosine at position 398 of AGS1 to a phenylalanine by site directed mutagenesis.
# as §2
# [7] = system: E. coli cells with AGS1 variant AGS1m19, F81S, P185S, H212S, V214A, G218S, I303N, SEQ ID NO:38; test: growth of E. coli on glufosinate plates, ags1m19; format: cell-based
# Procedure: as §1
# [8] = system: Serratia marcescens ATX 20345; test: growth of strain ATX 20345 in glufosinate; format: cell-based; conditions: minimal medium; growth above 50 mM was not tested
# Procedure: A glufosinate resistant bacterial strain (ATX 20345) was isolated from a soil sample via a soil suspension by placing approximately 0.01 grams soil in 500 μl sterile water. The soil suspension was vortexed, and 20 μl was used to inoculate a 2.5 ml minimal medium culture supplemented with 5 mM glufosinate (Riedel-de Habël, available through Sigma-Aldrich, St. Louis, Mo.). The minimal medium contains the following ingredients (per 1 liter): 10 grams sucrose, 1 ml 0.8M MgSO4, 1 ml 0.1M CaCl2, 1 ml trace elements, 2.38 grams KH2PO4, 5.64 grams K2HPO4. The pH is adjusted to 7.0, and the solution is sterilized with a 0.2 μm filter. Trace elements consist of (per 100 ml) 0.1 g FeSO4.7H2O, 0.5 mg CuSO4.5H2O, 1.0 mg H3BO3, 1.0 mg MnSO4.5H2O, 7.0 mg ZnSO4.7H2O, 1.0 mg MoO3, 4.0 g KCl. No additional nitrogen source was provided in the medium. Cultures were grown at 21° C. on a rotary shaker for 3 days then transferred to fresh minimal medium containing 5 mM glufosinate and incubated at 21° C. After 2 days, the cultures were used to inoculate fresh minimal medium with 5 mM glufosinate. After 2 days, the cultures were plated onto Luria Bertani (LB) agar and then restruck for isolation. […] Colonies on LB agar are pinkish-red, raised, circular, and 1-2 mm in diameter. ATX20345 was typed by fatty acid analysis (as known in the art), and determined to be a strain of Serratia marcescens. […]
# [9] = target: Serratia marcescens glutamine synthetase AGS1 variant AGS1m21, N160S, G167R, V214M, SEQ ID NO:42 (Serratia marcescens, UniProt A0A0F6KS08, G167R/N160S/V214M); test: enzymatic assay, kinetics of AGS1m21; format: biochemical
# Serratia marcescens glutamine synthetase AGS1 variant AGS1m21, N160S, G167R, V214M, SEQ ID NO:42, sequence (A0A0F6KS08 whole entry N160S/G167R/V214M): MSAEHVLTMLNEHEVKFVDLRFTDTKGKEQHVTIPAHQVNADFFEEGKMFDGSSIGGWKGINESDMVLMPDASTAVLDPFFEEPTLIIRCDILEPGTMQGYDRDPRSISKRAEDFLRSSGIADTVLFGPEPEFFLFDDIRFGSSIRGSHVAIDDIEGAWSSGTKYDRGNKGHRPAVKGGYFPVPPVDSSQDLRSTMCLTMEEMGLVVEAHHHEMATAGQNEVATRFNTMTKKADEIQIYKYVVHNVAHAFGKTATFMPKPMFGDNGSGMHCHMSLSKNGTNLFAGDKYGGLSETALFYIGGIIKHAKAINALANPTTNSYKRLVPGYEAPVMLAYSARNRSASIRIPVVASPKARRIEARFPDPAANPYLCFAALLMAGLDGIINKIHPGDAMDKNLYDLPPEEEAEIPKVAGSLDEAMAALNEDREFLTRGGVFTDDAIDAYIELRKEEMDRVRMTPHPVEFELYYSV
# Source text: ags1m21 (SEQ ID NO:41) encodes the AGS1m21 protein (SEQ ID NO:42). AGS1m21 is a variant of AGS1 that contains a similar amino acid change identified in other variants (V214M), as well as two novel mutations (N160S and G167R). This enzyme was expressed in E. coli, purified, and the kinetic values Km(glutamate) and Ki(glufosinate) of the variant measured by enzymatic assay.
# [10] = Table 5, Km glutamate, Ki glufosinate
smiles,measurement,setting,value
CP(=O)(O)CCC(N)C(=O)O (centres unmarked) [glufosinate],growth on plates containing 375 mM glufosinate,[1],able to grow
same,growth on plates containing 375 mM glufosinate,[2],able to grow
same,growth on plates containing 375 mM glufosinate,[3],able to grow
same,growth in the presence of glufosinate,[4],grew in the presence of glufosinate
same,Ki,[5],23 mM
same,(Kcat*Ki)/Km,[5]; [10],110.04
same,Ki,[6],0.013 mM
same,(Kcat*Ki)/Km,[6]; [10],12.59
same,growth on plates containing 375 mM glufosinate,[7],able to grow
same,glufosinate concentration through which ATX 20345 grows well,[8],≥ 50 mM
same,Ki,[9],2 mM

# Source: patent US8101389B2, “Bacterial glutamine synthetases and methods of use” (Athenix Corp, priority 2006, dated 2012)
